Measured values published in patent publication US6908899B2, “Pro-inflammatory fibrinopeptide” (U.S. Dept. of Veterans Affairs, priority 2001, dated 2005).

Test system: RA synovial fibroblasts
Test: ICAM-1 cell-ELISA (O.D. 492)
Type: cell-based, human
Settings: for ICAM-1 O.D. 492 / ICAM-1 expression O.D. 492: overnight; for ICAM-1 O.D. 492: IL-1 0.5 ng/ml, GPRP or GPRP-amide 1 mg/ml, fibrinogen receptor peptide 0.1 mg/ml, FPA, FPB 10^−4 M; for ICAM-1 expression O.D. 492: fibrin clots 0.6 mg/ml or GPRP 1 mg/ml, mean ± SD, triplicate

Gly-Pro-Arg-Pro [GPRP]
ICAM-1 induction (GPRP at 0.01 mg/ml): not to be significant | ICAM-1 induction (GPRP at 1.0, 0.5, and 0.1 mg/ml): significant induction | ICAM-1 O.D. 492 (RA line 1): 1.38 ± .16 | ICAM-1 O.D. 492 (RA line 2): 0.98 ± .03 | ICAM-1 expression O.D. 492 (RA line 4): 1.04 ± .02 | ICAM-1 expression O.D. 492 (RA line 5): 1.10 ± .03 | ICAM-1 expression O.D. 492 (RA line 9): 0.98 ± .15 | ICAM-1 OD 492 (RA#11, GPRP 0.10 mg/ml overnight): .37 ± 0 | ICAM-1 OD 492 (RA#11, GPRP 0.30 mg/ml overnight): .46 ± .05 | ICAM-1 OD 492 (RA#11, GPRP 1.00 mg/ml overnight): .59 ± .05 | ICAM-1 OD 492 (RA#11, GPRP .001 mg/ml overnight): .24 ± .05 | ICAM-1 OD 492 (RA#11, GPRP .003 mg/ml overnight): .25 ± .03 | ICAM-1 OD 492 (RA#11, GPRP .010 mg/ml overnight): .24 ± .05 | ICAM-1 OD 492 (RA#11, GPRP .030 mg/ml overnight): .31 ± .02 | ICAM-1 OD 492 (RA#12, GPRP 0.10 mg/ml overnight): 0.76 ± .03 | ICAM-1 OD 492 (RA#12, GPRP 0.30 mg/ml overnight): 1.09 ± .06 | ICAM-1 OD 492 (RA#12, GPRP 1.00 mg/ml overnight): 1.42 ± .08 | ICAM-1 OD 492 (RA#12, GPRP .001 mg/ml overnight): 0.51 ± .01 | ICAM-1 OD 492 (RA#12, GPRP .003 mg/ml overnight): 0.53 ± .01 | ICAM-1 OD 492 (RA#12, GPRP .010 mg/ml overnight): 0.57 ± .02 | ICAM-1 OD 492 (RA#12, GPRP .030 mg/ml overnight): 0.62 ± .03 | ICAM-1 expression (more than seven different RA fibroblast lines): consistently increased expression of ICAM-1
